Consider one compound from US9504657B2, “Fixed dose combination therapy of Parkinson's disease” (PHARMA TWO B LTD., priority 2012, dated 2016).

Experiment [1] concerns Parkinson's disease patients. As to conditions: 1 mg immediate release rasagiline added to pramipexole averaging 1.5 mg per day; cited from earlier work.
Experiment [2] relates to dopamine levels in mouse brain. The experiment is described as follows: In vivo study of drugs in MPTP mice model of Parkinson's disease, striatal dopamine by HPLC. As to conditions: IP daily 12 days, rasagiline 0.15 mg/Kg, pramipexole 0.12, 0.1, 0.075 mg/Kg, alone or combined. Here is the method: Male C57B1/6 mice weighing 20+/−1 g are used (6-10 mice per group). MPTP is administrated by intraperitonealy (IP) injection at a dose of 40 mg/Kg per day for 5 days. Controls are naïve untreated mice injected with saline, and MPTP treated mice injected with saline (no drug treatment). Drugs, rasagiline (0.15 mg/Kg) and pramipexole (3 different doses of 0.12, 0.1 and 0.075 mg/Kg), are given alone or in 3 fixed dose combinations of rasagiline and pramipexole. The fixed dose combinations are composed of rasagiline at a constant dose of 0.15 mg/Kg and pramipexole at 3 different doses as indicated above. Both drugs are dissolved together at saline from their stock solutions to give the final desired combination dose. The application of the drugs is done daily intraperitonealy (IP) injection 30 minutes before MPTP administration. […] The effect of the treatments is assessed by measurement of dopamine and its metabolites (dihydroxyphenylacetic acid and Homovanillic acid) in left and right striatum together taken from the mice at the end of the experiment. […]
Striatum tissue samples are homogenized in ice in 500 μl homogenization buffer (0.1M perchloric acid, 0.02% EDTA and 1% ETOH) using OMNI Tip homogenizing kit of OMNI International (intermediate speed, 3×10 seconds with 5 seconds intervals). […] The supernatants are transferred into fresh tubes and Dopamine content is analyzed by HPLC. […]

Consider `C#CCN[C@@H]1CCc2ccccc21` [rasagiline], for which the “combined effect on total UPDRS score, reduction compared to placebo” value in experiment [1] is 2.4 UPDRS points. In addition, the “effect of treatment on Dopamine levels compared to saline” value in experiment [2] is “very low”.
